Measured values: patent publication US20090176839A1, “FORMULATIONS OF 3-(6-(1-(2,2-DIFLUOROBENZO[D][1,3]DIOXOL-5-YL) CYCLOPROPANECARBOXAMIDO)-3-METHYLPYRIDIN-2-YL)BENZOIC ACID” (priority 2007, published 2009)
“Also recorded” adds a separate entry of the source. Like-named read-outs stand apart in the source and are kept apart here.

Experiments:
[1] = Toxicokinetics in acute oral toxicity study in rats; assay type: in vivo
Description: Compound 1 was also well absorbed in rats with time to reach maximum plasma concentrations(tmax) ranging from 4.0 to 24.0 hr.

in vivo [2] = assay: in vivo; design: species or system rats; conditions: rat
Protocol: (§1) The animals were dosed orally with the vehicle (0.5% methylcellulose in water), or 15, 75, or 150 mg/kg Compound 1 twice daily for 7 consecutive days. The two daily doses were administered approximately 10 hours apart and the dose volume was 5 mL/kg/b.i.d. for all dose groups. At the end of the dosing period, all animals were euthanized and necropsied. Satellite animals (6/sex/Groups 2-4) were dosed in the same manner as the toxicity animals and plasma samples were collected on Days 1 and 7 for toxicokinetic (TK) analysis. Parameters evaluated during the study were: viability, clinical observations, body weights, feed consumption, clinical pathology (termination), organ weights, macroscopic observations and microscopic pathology.

rats = assay: in vivo; conditions: rat
Protocol: as §1

[3] = Toxicokinetics in 7-day dose range finding study in rats; assay type: in vivo; conditions: 300 mg/kg/day; for Cmax: rat, plasma, oral
Protocol: as §1
The plasma AUC0-24 data on Day 1 was consistent with previously conducted single dose studies of Compound 1 in the rat.

[4] = target: T1, Thromboxane A2 (TXA2) receptor (TP receptor) (Homo sapiens, UniProt P21731); assay: Radiolabel binding counter screen (MDS Pharma Services)
T1 construct: MDS Pharma Services MDSPS PT#: 1083321
T1 sequence (P21731 1-343): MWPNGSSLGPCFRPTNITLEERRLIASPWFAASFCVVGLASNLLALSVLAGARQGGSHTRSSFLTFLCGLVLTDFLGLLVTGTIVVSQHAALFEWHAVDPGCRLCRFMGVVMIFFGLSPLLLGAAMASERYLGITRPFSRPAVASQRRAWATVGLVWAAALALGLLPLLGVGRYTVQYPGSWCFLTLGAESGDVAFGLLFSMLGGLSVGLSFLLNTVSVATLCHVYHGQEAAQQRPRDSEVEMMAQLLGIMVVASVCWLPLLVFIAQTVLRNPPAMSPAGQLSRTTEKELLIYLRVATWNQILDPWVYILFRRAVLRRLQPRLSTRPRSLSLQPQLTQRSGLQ
Description: Compound 1 was counter screened against a broad panel of enzymes and receptors using radiolabel binding studies (see MDS Pharma Services, LeadProfiling and SpectrumScreen, MDSPS PT#: 1083321).

[5] = tested on: Chinese hamster ovary (CHO) cell; assay: Chinese hamster ovary (CHO) chromosome aberration assay; assay type: cell-based; conditions: GLP
Protocol: (§2) The potential for genetic toxicology was tested using standard GLP bacterial mutation (Ames), Chinese hamster ovary (CHO) chromosome aberration, and in vivo mouse micronucleus assays: Compound 1 was negative in all tests. […] With the exception of the preliminary 7-day toxicity studies, all studies were performed according to GLP regulations.

male mice = assay: In vivo mouse micronucleus assay; conditions: oral gavage at doses up to 2000 mg/kg
Protocol: as §2

[6] = tested on: gastrointestinal, respiratory, CNS, or cardiovascular systems; assay: Safety pharmacology studies (ICH S7A/S7B battery); assay type: in vivo, rat, dog
[7] = Single oral pharmacokinetics of the free form in suspension in male rats; assay type: in vivo, male Sprague Dawley rats; conditions: for AUC(0-inf): free form suspension, mean (SD)
Protocol: (§3) The pharmacokinetics of Compound 1 were assessed in the same species used in the toxicology studies: CD-1 mice, Sprague Dawley rats and beagle dogs. The pharmacokinetics of Compound 1 were also assessed in cynomolgus monkeys.
Non-validated research grade assays were used for these analyses. All pharmacokinetic studies were conducted using fed animals unless otherwise specified.
At 600 mg/kg, the increase in systemic exposure was less than proportional to the increase in dose. Bioavailability ranged from 47% to ˜100% across the 1 to 600 mg/kg oral dose range in rats, indicating excellent absorption of the compound.

[8] = Pharmacokinetics in cynomolgus monkeys; assay type: in vivo; conditions: monkey
Protocol: as §3

in vivo [9] = conditions: male, beagle, dog, 200 mg/kg
dogs = assay: 14-day repeat-dose oral toxicity study in dogs
Protocol: Repeat-dose oral toxicity studies of 7- and 14-days duration have been conducted in rats (up to 600 mg/kg/day) and dogs (up to 200 mg/kg/day).

[10] = Sprague Dawley, rat, plasma, po, male rats, free form, 1 mg/kg
[11] = Sprague Dawley, rat, plasma, po, male rats, free form, 30 mg/kg
[12] = Sprague Dawley, rat, plasma, po, male rats, free form, 150 mg/kg
[13] = Sprague Dawley, rat, plasma, po, male rats, free form, 300 mg/kg
[14] = Sprague Dawley, rat, plasma, po, male rats, free form, 600 mg/kg
[15] = male rats, free form, 150 mg/kg
[16] = male rats, free form, 300 mg/kg
[17] = male rats, free form, 600 mg/kg

With `Cc1ccc(NC(=O)C2(c3ccc4c(c3)OC(F)(F)O4)CC2)nc1-c1cccc(C(=O)O)c1` [Compound 1, 3-(6-(1-(2,2-difluorobenzo[d][1,3]dioxol-5-yl)cyclopropanecarboxamido)-3-methylpyridin-2-yl)benzoic acid] the “AUC0-24hr values, females vs. males” value ([1]; 500 mg/kg dose group) was “more than 2 fold”, the Cmax ([1]; Sprague Dawley, rat, plasma, po, 2000 mg/kg, Male) was 306000 ng/mL and the AUC(0-t) ([1]; Sprague Dawley, rat, plasma, po, 2000 mg/kg, Male, read-out: AUC0-24 h) was 6110 µg·h/mL. For the same compound, the Tmax ([1]; Sprague Dawley, rat, plasma, po, 2000 mg/kg, Male, read-out: tmax) was 24 h, the Tmax ([1]; both sexes, rat, plasma, po, 500 to 2000 mg/kg, read-out: time to reach maximum plasma concentrations (tmax)) was 4 to 24 h and the half-life ([1]; both sexes, rat, plasma, po, could not be calculated at 1000 and 2000 mg/kg, read-out: elimination half-life (t1/2)) was 9.4 to 10.8 h. It also gave a Cmax ([1]; male, rat, plasma, po, males at 500 mg/kg) of 135000 ng/mL, an AUC(0-t) ([1]; male, rat, plasma, po, males at 500 mg/kg, read-out: AUC0-24hr) of 1390 µg·h/mL and a Cmax ([1]; male, rat, plasma, po, males at 2000 mg/kg) of 306000 ng/mL. The Cmax ([1]; rat, plasma, po, 2000 mg/kg, Female) was 305000 ng/mL, the AUC(0-t) ([1]; rat, plasma, po, 2000 mg/kg, Female, read-out: AUC0-24 h) was 6750 µg·h/mL and the Tmax ([1]; rat, plasma, po, 2000 mg/kg, Female, read-out: tmax) was 10 h. For the same compound, the NOAEL at 7 days (in vivo [2]) was 300 mg/kg/day, the “gross lesions and histopathological findings” value (rats) was “no test article related gross lesions or histopathological findings” and the adrenal gland weights (rats; 300 mg/kg/day) was “higher adrenal gland weights”. The body weight (rats; 300 mg/kg/day) was “minor effects on body weight”, the serum potassium (rats; 300 mg/kg/day) was “lower serum potassium” and the “urinary pH” value (rats; 300 mg/kg/day) was “slight increase in urinary pH”. For the same compound, the average plasma concentrations ([3]; females) was ~190 µM, the Cmax ([3]; female, females) was ~280 µM and the Cmax ([3]; male, males) was ~430 µM. The Ki [4] was ~3 µM, the “clastogenicity (chromosome aberrations)” value [5] was “negative” and the “number of micronucleated polychromatic erythrocytes” value (male mice) was “negative; also recorded: did not induce a significant increase”. For the same compound, the “cardiovascular or respiratory findings” value ([6]; oral doses up to 1000 mg/kg in the rat and 200 mg/kg in the dog) was “no cardiovascular or respiratory findings”, the “adverse effects on gastrointestinal, respiratory, CNS, or cardiovascular systems” value ([6]; oral formulations) was “unlikely to cause adverse effects” and the concentration at 48 hr ([7]; Sprague Dawley, rat, plasma, oral, male rats, free form, 1 mg/kg, read-out: Clast) was 28.8 ng/mL. The concentration at 48 h ([7]; Sprague Dawley, rat, plasma, oral, male rats, free form, 30 mg/kg, read-out: Clast) was 44 ng/mL, the concentration at 72 hr ([7]; Sprague Dawley, rat, plasma, oral, male rats, free form, 150 mg/kg, read-out: Clast) was 51.6 ng/mL and the concentration at 48 hr ([7]; Sprague Dawley, rat, plasma, oral, male rats, free form, 300 mg/kg, read-out: Clast) was 1120 ng/mL. The concentration at 72 hr ([7]; Sprague Dawley, rat, plasma, oral, male rats, free form, 600 mg/kg, read-out: Clast) was 1240 ng/mL, the AUC(0-inf) ([7]; Sprague Dawley, rat, plasma, po, male rats, nominal dose 1 mg/kg) was 13.7 µg·h/mL and the AUC(0-inf) ([7]; Sprague Dawley, rat, plasma, po, male rats, nominal dose 30 mg/kg) was 369 µg·h/mL. For the same compound, the AUC(0-inf) ([7]; Sprague Dawley, rat, plasma, po, male rats, nominal dose 150 mg/kg) was 728 µg·h/mL, the AUC(0-inf) ([7]; Sprague Dawley, rat, plasma, po, male rats, nominal dose 300 mg/kg) was 2530 µg·h/mL and the AUC(0-inf) ([7]; Sprague Dawley, rat, plasma, po, male rats, nominal dose 600 mg/kg) was 3080 µg·h/mL. The Cmax [7, 10] was 1100 ng/mL, the Tmax [7, 10] was 3 h and the Cmax [7, 11] was 28200 ng/mL. It also gave a Tmax [7, 11] of 4 h, a Cmax [7, 12] of 54700 ng/mL and a Tmax [7, 12] of 4.67 h. For the same compound, the Cmax [7, 13] was 181000 ng/mL, the Tmax [7, 13] was 3.33 h and the Cmax [7, 14] was 203000 ng/mL. The Tmax [7, 14] was 4.67 h, the F ([7]; male rats, free form, 1 mg/kg) was >100% and the tlast ([7]; male rats, free form, 1 mg/kg) was 48 h. For the same compound, the F ([7]; male rats, free form, 30 mg/kg) was >100%, the tlast ([7]; male rats, free form, 30 mg/kg) was 48 h and the F [7, 15] was 47%. The tlast [7, 15] was 72 h, the F [7, 16] was 81% and the tlast [7, 16] was 48 h. It also gave an F [7, 17] of 50%, a tlast [7, 17] of 72 h and a half-life ([7]; male, Sprague Dawley, rat, plasma, po, 1 mg/kg, male rats, free form, 1 mg/kg, read-out: t1/2 (converted)) of 7.65 h. It also gave a half-life ([7]; male, Sprague Dawley, rat, plasma, po, 30 mg/kg, male rats, free form, 30 mg/kg, read-out: t1/2 (converted)) of 6.83 h, a half-life ([7]; male, Sprague Dawley, rat, plasma, po, 150 mg/kg, male rats, free form, 150 mg/kg, read-out: t1/2 (converted)) of 8.07 h and a half-life ([7]; male, Sprague Dawley, rat, plasma, po, 300 mg/kg, male rats, free form, 300 mg/kg, read-out: t1/2 (converted)) of 5.86 h. For the same compound, the half-life ([7]; male, Sprague Dawley, rat, plasma, po, 600 mg/kg, male rats, free form, 600 mg/kg, read-out: t1/2 (converted)) was 7.49 h, the half-life ([7]; male, Sprague Dawley, rat, plasma, po, administered orally to rats, read-out: half-life) was 5 to 9 h and the half-life ([7]; male, Sprague Dawley, rat, plasma, po, male rats, 1 to 600 mg/kg oral dose range, read-out: terminal half-life) was 5.9 to 8.1 h. The bioavailability ([7]; male, Sprague Dawley, rat, plasma, rats, across the 1 to 600 mg/kg oral dose range) was 47 to 100%, the Tmax ([7]; male, Sprague Dawley, rat, plasma, rats, across the oral dose range, fed conditions) was 3 to 4.7 h and the clearance ([7]; rat) was “very low clearance”. The clearance [8] was “very low clearance”, the AUC(0-inf) (in vivo [9]) was 288 µg·h/mL and the Cmax (in vivo [9]) was 52000 ng/mL. It also gave a concentration at 48 hr (in vivo [9]) of 63 ng/mL, a Tmax (in vivo [9]; po) of 1.7 h and a half-life (in vivo [9]; po) of 6.1 h. The “projected safety margin range from the dog NOAEL” value (dogs; assuming efficacious dose in dogs 0.91 mg/kg b.i.d. (Ctrough at EC90)) was 110 × and the “low prostate:body weight and prostate:brain weight ratios vs. vehicle control group” value (dogs; male dogs, 14-day study, all dose levels) was 52-62%.
